Experimental data published in patent US20240408008A1, “AN IN-SITU GELLING ENEMA OF RIFAMYCIN FOR TREATING POUCHITIS AND DISTAL ULCERATIVE COLITIS” (COSMO TECHNOLOGIES LTD., priority 2021, published 2024).
≈ marks a conversion by molar mass, not a printed value.

Experiments:
K. pneumoniae = test: MIC, broth dilution; format: cell-based; conditions: Klebsiella pneumoniae, aerobic
[1] = system: Faecalibacterium prausnitzii; test: MIC, broth dilution; format: cell-based; conditions: anaerobic
[2] = system: selected bacteria involved in pouchitis pathogenesis; test: MIC, broth dilution, whole panel; format: cell-based; conditions: Gram-positive and Gram-negative, aerobic and anaerobic bacteria of Table 3
Source text: The Minimum Inhibitory Concentration (MIC) is defined as the lowest concentration expressed in mg/L (equivalent to μg/mL) of an antimicrobial ingredient or agent that is bacteriostatic (prevents the visible growth of bacteria). MICs are used to evaluate the antimicrobial efficacy of various compounds by measuring the effect of decreasing concentrations of antibiotic over a defined period in terms of inhibition of microbial population growth. MIC is generally regarded as the most basic laboratory measurement of the activity of an antimicrobial agent against an organism.
Antimicrobial characteristics of Rifamycin sodium salt was assessed on a panel of selected bacteria involved in pouchitis pathogenesis and a standard broth dilution method was used to determine the MIC of Rifamycin. Briefly, two-fold dilutions of the tested compounds were dispensed in 96 round bottom well plates, each dilution was processed in the liquid culture medium suitable for the tested bacterial species. Bacteria inocula were prepared by a suspension of the microbial strain in sterile water saline and adjusted to a concentration of 0.5McFarland standard corresponding to 1.5×10^8 CFU/ml. A final bacterial concentration of 0.5-1×10^5 CFU/ml was distributed in each well. […] MIC was recorded when there was visible growth in the positive growth control column (bacterial inoculum without test substance). […]

B. bifidum = test: MIC, broth dilution; format: cell-based; conditions: Bifidobacterium bifidum, DSM20082; B. bifidum (DSM 20082); anaerobic
[3] = Rifamycin concentration in colon of DSS mice, HPLC MS/MS; format: in vivo; conditions: enema 67 mg/kg, all the tested time-points
Description: For this study, a group of mice was treated by enema with Batch 7663 (indicated as CB0125 in the figures) (dose 45 mg/kg), one group was treated by enema with Placebo Batch 7679 as a comparator for 7663; a group was treated by enema with Rifamycin powder dissolved in water (67 mg/kg). One group of mice was treated orally PO with 5-ASA at the dose of 100 mg/Kg; this group was introduced as positive control. 5-ASA is the golden standard therapy for inflammatory bowel diseases, including UC, distal UC and proctitis. One group was treated by enema with the vehicle (H2O) only, as negative control.
For PK analysis colon samples were cut into in pieces and washed 3 times with PBS to remove surface contaminants.

Parvimonas micra = test: MIC, broth dilution; format: cell-based; conditions: DSM20468; Parvimonas micra (DSM 20468); anaerobic
C. perfringens = test: microbe, parasite or virus in culture; format: cell-based; conditions: Clostridium perfringens, DSM11783
E. faecalis = test: MIC, broth dilution; format: cell-based; conditions: Enterococcus faecalis, aerobic
B. adolescentis = test: MIC, broth dilution; format: cell-based; conditions: Bifidobacterium adolescentis, DSM20083; B. adolescentis (DSM 20083); anaerobic
Bacteroides fragilis = test: MIC, broth dilution; format: cell-based; conditions: anaerobic
F. nucleatum = test: MIC, broth dilution; format: cell-based; conditions: Fusobacterium nucleatum, anaerobic
Ruminococcus gnavus = test: MIC, broth dilution; format: cell-based; conditions: Mediterraneibacter gnavus, DSM108212; Ruminococcus gnavus (DSM 108212); anaerobic
Streptococcus pyogenes = test: MIC, broth dilution; format: cell-based; conditions: ATCC700460; Streptococcus pyogenes (ATCC 700460); aerobic
Prevotella intermedia = test: MIC, broth dilution; format: cell-based; conditions: DSM20706; Prevotella intermedia (DSM 20706); anaerobic
Bifidobacterium breve = test: MIC, broth dilution; format: cell-based; conditions: DSM20091; Bifidobacterium breve (DSM 20091); anaerobic
mTOR pathway = test: Inhibition of mTOR and S6R phosphorylation in primary colonic epithelial cells, flow cytometry; format: cell-based, human
Description: To evaluate Rifamycin activity on the mTOR pathway, primary colonic epithelial cells were serum starved for 24 hr and restimulated with serum for 48 hr to induce phosphorylation of mTOR and its downstream target protein […]. Serum stimulated cells were treated with Rifamycin SV, Rifaximin, the positive control Rapamycin, or the negative vehicle control DMSO. Cells were fixed, stained with antibodies against pmTOR and pS6R then analyzed by flow cytometry.

With `CO[C@H]1/C=C/O[C@@]2(C)Oc3c(C)c(O)c4c(O)c(cc(O)c4c3C2=O)NC(=O)/C(C)=C\C=C\[C@H](C)[C@H](O)[C@@H](C)[C@@H](O)[C@@H](C)[C@H](OC(C)=O)[C@@H]1C` [Rifamycin SV] the MIC (K. pneumoniae; DSM16609, K. pneumoniae (DSM 16609)) was > 64 µg/mL, the MIC (K. pneumoniae; DSM25721, K. pneumoniae (DSM 25721)) was 64 µg/mL (≈ 91.7 µM) and the MIC ([1]; DSM107839, Faecalibacterium prausnitzii (DSM 107839)) was 0.06 µg/mL (≈ 0.086 µM). For the same molecule, the MIC ([1]; Faecalibacterium prausnitzii, DSM17677, F. prausnitzii (DSM 17677)) was < 0.03 µg/mL, the MIC ([1]; Faecalibacterium prausnitzii, DSM107838, F. prausnitzii (DSM 107838)) was < 0.03 µg/mL and the MIC ([1]; Faecalibacterium prausnitzii, DSM107840, F. prausnitzii (DSM 107840)) was < 0.03 µg/mL. The “antimicrobial activity in vitro” value [2] was “powerful antimicrobial activity”, the MIC (B. bifidum) was 1 µg/mL (≈ 1.43 µM) and the “Rifamycin concentration in the colon homogenate” value [3] was “lower than that of the animals treated with formulation 7663”. For the same molecule, the MIC (Parvimonas micra) was < 0.3 µg/mL, the MIC (C. perfringens) was < 0.03 µg/mL and the MIC (E. faecalis; ATCC29212, E. faecalis (ATCC 29212)) was 50 µg/mL (≈ 71.7 µM). For the same molecule, the MIC (E. faecalis; DSM2570, E. faecalis (DSM 2570)) was 200 µg/mL (≈ 287 µM), the MIC (E. faecalis; DSM2921, E. faecalis (DSM 2921)) was 64 µg/mL (≈ 91.7 µM) and the MIC (E. faecalis; DSM2981, E. faecalis (DSM 2981)) was 200 µg/mL (≈ 287 µM). The MIC (E. faecalis; DSM6134, E. faecalis (DSM 6134)) was 50 µg/mL (≈ 71.7 µM), the MIC (E. faecalis; E. faecalis (6172818861)) was 12.5 µg/mL (≈ 17.9 µM) and the MIC (E. faecalis; E. faecalis (C 46)) was 12.5 µg/mL (≈ 17.9 µM). It also gave an MIC (E. faecalis; E. faecalis (E 83)) of 3.12 µg/mL (≈ 4.47 µM), an MIC (B. adolescentis) of 1 µg/mL (≈ 1.43 µM) and an MIC (Bacteroides fragilis; Bacteroides fragilis, DSM1396, B. fragilis (DSM 1396)) of 0.39 µg/mL (≈ 0.559 µM). It also gave an MIC (Bacteroides fragilis; Bacteroides fragilis, DSM9668, B. fragilis (DSM 9668)) of 100 µg/mL (≈ 143 µM), an MIC (Bacteroides fragilis; Bacteroides fragilis, DSM9669, B. fragilis (DSM 9669)) of 100 µg/mL (≈ 143 µM) and an MIC (Bacteroides fragilis; Bacteroides fragilis, DSM9670, B. fragilis (DSM 9670)) of 50 µg/mL (≈ 71.7 µM). The MIC (Bacteroides fragilis; Bacteroides fragilis, DSM9671, B. fragilis (DSM 9671)) was 50 µg/mL (≈ 71.7 µM), the MIC (Bacteroides fragilis; DSM2151, Bacteroides fragilis (DSM 2151)) was 0.78 µg/mL (≈ 1.12 µM) and the MIC (F. nucleatum; DSM15643, F. nucleatum (DSM 15643)) was < 0.03 µg/mL. For the same molecule, the MIC (F. nucleatum; DSM19507, F. nucleatum (DSM 19507)) was 8 µg/mL (≈ 11.5 µM), the MIC (Ruminococcus gnavus) was < 0.03 µg/mL and the MIC (Streptococcus pyogenes) was 0.5 µg/mL (≈ 0.717 µM). For the same molecule, the MIC (Prevotella intermedia) was < 0.3 µg/mL, the MIC (Bifidobacterium breve) was 0.5 µg/mL (≈ 0.717 µM) and the IC50 (mTOR pathway; Homo sapiens, Epithelial cell, serum stimulated primary colonic epithelial cells, 48 hr, read-out: IC50, % cells positive for anti-pmTOR and anti-pS6R relative to DMSO) was 9.9 µM. For the same molecule, the “mTOR pathway potency, fold less potent than Rapamycin” value (mTOR pathway; ratio of IC50) was 20 fold and the “mTOR pathway potency, fold more potent than Rifaximin” value (mTOR pathway; ratio of IC50) was 4 fold.
